Experimental data reported in patent US10463644B2, “Uses of sesquiterpene lactone compounds and their derivatives in drugs preparation” (ACCENDATECH, priority 2013, dated 2019).
Read-outs that look alike come from different tables or passages of the source.

Legend:
[1] = system: TNF-α secreted by synoviocyte; assay: Content of TNF-α in culture supernatant of synoviocyte of RA model rats given test compound; assay type: in vivo; settings: rat RA model, dose 30 mg/kg.2d; normal control 0.38 ± 0.027, NaCl 0.74 ± 0.098; 30 mg/kg
From the text: (§1) Take Compound 1-50 prepared as per the method according to the present invention and employ the method provided in Reference to prepare model, group drugs and prepare culture supernatant of rat synoviocyte.
(§2) Employ the method provided in Reference to investigate the effects of the test compounds on the synoviocyte to secrete TNF-α and PGE2. Employ the method provided in Reference to investigate the effects of the test compounds on the synoviocyte to secrete IL-1β.
(§3) The experimental data of the test compound 1-50 at a dose of 30 mg/kg.2d as well as the normal control and NaCl group are as follows: […]

[2] = system: IL-1β secreted by synoviocyte; assay: Content of IL-1β in culture supernatant of synoviocyte of RA model rats given test compound; assay type: in vivo; settings: rat RA model, dose 30 mg/kg.2d; normal control 0.16 ± 0.034, NaCl 0.49 ± 0.136; 30 mg/kg
From the text: as §1, §2, §3

cancer stem cells = assay: Survival rate of cancer stem cells after test compound is added (flow cytometry, Annexin V-FITC/PI, clinical specimen); assay type: cell-based, patient; settings: Homo sapiens, 18 h
From the text: (§4) Take fresh or cryopreserved clinical specimen (acute myelogenous leukemia (AML, marker is CD34^+/CD38^+), chronic myelogenous leukemia (CML, Ph+/CD34+/CXCR4+), chronic lymphocytic leukemia (CLL,CD133+/CD19−/CD38−), skin cancer (CD34+), breast cancer (CD44+/CD24−/ESA+), ovarian cancer (CD44+/CD117+), brain tumor (CD133+) prostate cancer (CD44+/CD24−), head-neck squamous cell carcinoma (CD44+), laryngeal cancer (CD133+), pancreatic cancer (ESA+/CD44+/CD24+), retinoblastoma (ABCG2/ALDH1), Children hepatoblastoma (CD34+/THY1+/c-kit+), liver cancer (CD133+), malignant melanoma (CD133+), colorectal cancer (EpCAM^high/CD44+), colon adenocarcinoma (CD44^high), glioma (ABCG-2/BCRP1), gastrointestinal tumor (ABCG-2/BCRP1), nasopharynx cancer (ABCG2), brain glioma (Dlk-1/Pref-1), gastric cancer (CD45+), lung adenocarcinoma (Sca-1/CD45-/Pecam-/CD34+), lung cancer (CD133+CD34+CD44+)) of patient. Take the acute myelogenous leukemia as the example, conduct density gradient centrifugation with Ficoll and take out the middle mononuclear cells, re-suspend it with serum-free IMDM after centrifuged. Adjust the concentration of cells into 1×10^6/mL and lay 24-well plate with 1 mL in each well, and then treat 18 hours with the compound to select with corresponding concentration. Collect the cells and centrifuge them at 1500 rps for 8 minutes, re-suspend the precipitation with […], mark the antibodies related to leukemia stem cell, avoid light to incubate 30 minutes at room temperature and then centrifuge it at 1500 rps, then wash away the unbound antibody CD34^+CD38^+. Re-suspend it with 100 μl 1× Binding Buffer and add respectively 5 μl Annexin V-FITC and PI, then avoid light to incubate 15 minutes before add 200 μl 1× Binding Buffer, then use flow cytometry to examine the marked apoptosis within one hour.

cancer cells = assay: Survival rate of cancer cells after test compound is added (flow cytometry, Annexin V-FITC/PI, clinical specimen); assay type: cell-based, patient; settings: Homo sapiens, 18 h, read-out: Survival rate (%) All cells (Stem cells and ordinary cells)
From the text: as §4

normal cells = assay: Survival rate of normal cells after test compound is added (flow cytometry, Annexin V-FITC/PI); assay type: cell-based; settings: 18 h
From the text: as §4

[3] = Head and neck squamous cell carcinomas
[4] = read-out: Survival rate (%) All cells (Stem cells and ordinary cells)
[5] = read-out: Survival rate (%) Stem cells

CC1=C2CC[C@@](C)(O)[C@@H]2[C@H]2OC(=O)[C@@H](CN(C)C)[C@@H]2CC1 [Compound 23]
Content of TNF-α in culture supernatant of synoviocyte (x ± s) [1]: 0.63 ± 0.063 ng/mL
Content of IL-1β in culture supernatant of synoviocyte (x ± s) [2]: 0.36 ± 0.065 ng/mL
viability at 10 µM (cancer stem cells; AML): 85%
viability at 20 µM (cancer stem cells; AML): 72%
viability at 10 µM (cancer stem cells; Brain glioma): 84%
viability at 20 µM (cancer stem cells; Brain glioma): 76%
viability at 10 µM (cancer stem cells; Brain tumor): 85%
viability at 20 µM (cancer stem cells; Brain tumor): 73%
viability at 10 µM (cancer stem cells; Breast cancer): 84%
viability at 20 µM (cancer stem cells; Breast cancer): 74%
viability at 10 µM (cancer stem cells; CLL): 86%
viability at 20 µM (cancer stem cells; CLL): 74%
viability at 10 µM (cancer stem cells; CML): 87%
viability at 20 µM (cancer stem cells; CML): 71%
viability at 10 µM (cancer stem cells; Children hepatoblastoma): 85%
viability at 20 µM (cancer stem cells; Children hepatoblastoma): 79%
viability at 10 µM (cancer stem cells; Colon adenocarcinoma): 88%
viability at 20 µM (cancer stem cells; Colon adenocarcinoma): 81%
viability at 10 µM (cancer stem cells; Colorectal cancer): 79%
viability at 20 µM (cancer stem cells; Colorectal cancer): 72%
viability at 10 µM (cancer stem cells; Gastric cancer): 82%
viability at 20 µM (cancer stem cells; Gastric cancer): 77%
viability at 10 µM (cancer stem cells; Gastrointestinal tumor): 91%
viability at 20 µM (cancer stem cells; Gastrointestinal tumor): 82%
viability at 10 µM (cancer stem cells; Glioma): 87%
viability at 20 µM (cancer stem cells; Glioma): 76%
viability at 10 µM (cancer stem cells; [3]): 84%
viability at 20 µM (cancer stem cells; [3]): 78%
viability at 10 µM (cancer stem cells; Laryngeal cancer): 79%
viability at 20 µM (cancer stem cells; Laryngeal cancer): 73%
viability at 10 µM (cancer stem cells; Liver cancer): 82%
viability at 20 µM (cancer stem cells; Liver cancer): 79%
viability at 10 µM (cancer stem cells; Lung adenocarcinoma): 85%
viability at 20 µM (cancer stem cells; Lung adenocarcinoma): 82%
viability at 10 µM (cancer stem cells; Lung cancer): 85%
viability at 20 µM (cancer stem cells; Lung cancer): 78%
viability at 10 µM (cancer stem cells; Malignant melanoma): 82%
viability at 20 µM (cancer stem cells; Malignant melanoma): 76%
viability at 10 µM (cancer stem cells; Nasopharynx cancer): 85%
viability at 20 µM (cancer stem cells; Nasopharynx cancer): 74%
viability at 10 µM (cancer stem cells; Ovarian cancer): 87%
viability at 20 µM (cancer stem cells; Ovarian cancer): 75%
viability at 10 µM (cancer stem cells; Pancreatic cancer): 87%
viability at 20 µM (cancer stem cells; Pancreatic cancer): 77%
viability at 10 µM (cancer stem cells; Prostate cancer): 85%
viability at 20 µM (cancer stem cells; Prostate cancer): 77%
viability at 10 µM (cancer stem cells; Retinoblastoma): 82%
viability at 20 µM (cancer stem cells; Retinoblastoma): 74%
viability at 10 µM (cancer stem cells; Skin cancer): 85%
viability at 20 µM (cancer stem cells; Skin cancer): 75%
viability at 10 µM (cancer cells; AML): 92%
viability at 20 µM (cancer cells; AML): 84%
viability at 10 µM (cancer cells; Brain glioma): 88%
viability at 20 µM (cancer cells; Brain glioma): 85%
viability at 10 µM (cancer cells; Brain tumor): 89%
viability at 20 µM (cancer cells; Brain tumor): 85%
viability at 10 µM (cancer cells; Breast cancer): 89%
viability at 20 µM (cancer cells; Breast cancer): 86%
viability at 10 µM (cancer cells; CLL): 95%
viability at 20 µM (cancer cells; CLL): 85%
viability at 10 µM (cancer cells; CML): 91%
viability at 20 µM (cancer cells; CML): 79%
viability at 10 µM (cancer cells; Children hepatoblastoma): 93%
viability at 20 µM (cancer cells; Children hepatoblastoma): 86%
viability at 10 µM (cancer cells; Colon adenocarcinoma): 91%
viability at 20 µM (cancer cells; Colon adenocarcinoma): 89%
viability at 10 µM (cancer cells; Colorectal cancer): 88%
viability at 20 µM (cancer cells; Colorectal cancer): 81%
viability at 10 µM (cancer cells; Gastric cancer): 86%
viability at 20 µM (cancer cells; Gastric cancer): 84%
viability at 10 µM (cancer cells; Gastrointestinal tumor): 94%
viability at 20 µM (cancer cells; Gastrointestinal tumor): 88%
viability at 10 µM (cancer cells; Glioma): 94%
viability at 20 µM (cancer cells; Glioma): 87%
viability at 10 µM (cancer cells; [3]): 91%
viability at 20 µM (cancer cells; [3]): 88%
viability at 10 µM (cancer cells; Laryngeal cancer): 88%
viability at 20 µM (cancer cells; Laryngeal cancer): 82%
viability at 10 µM (cancer cells; Liver cancer): 88%
viability at 20 µM (cancer cells; Liver cancer): 87%
viability at 10 µM (cancer cells; Lung adenocarcinoma): 87%
viability at 20 µM (cancer cells; Lung adenocarcinoma): 87%
viability at 10 µM (cancer cells; Lung cancer): 88%
viability at 20 µM (cancer cells; Lung cancer): 84%
viability at 10 µM (cancer cells; Malignant melanoma): 89%
viability at 20 µM (cancer cells; Malignant melanoma): 86%
viability at 10 µM (cancer cells; Nasopharynx cancer): 94%
viability at 20 µM (cancer cells; Nasopharynx cancer): 81%
viability at 10 µM (cancer cells; Ovarian cancer): 91%
viability at 20 µM (cancer cells; Ovarian cancer): 84%
viability at 10 µM (cancer cells; Pancreatic cancer): 90%
viability at 20 µM (cancer cells; Pancreatic cancer): 86%
viability at 10 µM (cancer cells; Prostate cancer): 92%
viability at 20 µM (cancer cells; Prostate cancer): 89%
viability at 10 µM (cancer cells; Retinoblastoma): 91%
viability at 20 µM (cancer cells; Retinoblastoma): 85%
viability at 10 µM (cancer cells; Skin cancer): 95%
viability at 20 µM (cancer cells; Skin cancer): 87%
viability at 10 µM (normal cells; [4]): 96%
viability at 10 µM (normal cells; [5]): 93%
viability at 20 µM (normal cells; [4]): 95%
viability at 20 µM (normal cells; [5]): 92%
